Results on 22 molecules are retold here after patent CN114790169A, “四氢喹啉相关二环类化合物及其应用” (Guangzhou Institute of Biomedicine and Health of CAS, priority 2016, dated 2017).

The target of the first data set is T1, nuclear receptor RORγ [核受体RORγ] (Homo sapiens, UniProt P51449).
T1 construct: 重组质粒:Gal4-RORγLBD:25ng; expressed in transfected cells; host or cells: 293T (human kidney epithelial cell line)
T1 sequence (P51449 269-508 limits assumed): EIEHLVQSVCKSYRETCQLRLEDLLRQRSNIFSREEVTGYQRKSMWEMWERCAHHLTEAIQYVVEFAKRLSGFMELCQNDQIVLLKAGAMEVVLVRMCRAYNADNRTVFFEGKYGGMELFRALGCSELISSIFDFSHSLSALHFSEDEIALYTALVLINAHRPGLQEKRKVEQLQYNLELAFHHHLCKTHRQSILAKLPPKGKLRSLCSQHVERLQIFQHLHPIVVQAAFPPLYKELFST
Briefly: Dual-luciferase reporter assay, inhibition of nuclear receptor RORγ at cell level in 293T cells (Gal4-RORγLBD). In kind it is cell-based. As to conditions: inhibitory activity against RORγ at cell level; 293T cells, 24 h incubation with compound. On the technique in general: A reporter such as luciferase makes a cellular process visible.
In general, IC50 refers to the concentration that gives 50% inhibition. As to `COC(=O)c1cccc(CS(=O)(=O)N2CCCc3ccc(NS(=O)(=O)c4ccc(F)cc4F)cc32)c1` [实施例30, 3-(((7-(2,4-二氟苯基磺酰氨基)-3,4-二氢喹啉-1(2H)-基)磺酰基)甲基)苯甲酸甲酯], the IC50 came to 930 nM. Still for that read-out and setting: the same measure for `COC(=O)c1ccccc1S(=O)(=O)N1CCCc2ccc(NS(=O)(=O)c3cc(OC)ccc3OC)cc21` [实施例56, 2-((7-((2,5-二甲氧基苯基)磺酰氨基)-3,4-二氢喹啉-1(2H)-基) 磺酰基)苯甲酸甲酯]: 160 nM; for `COC(=O)c1ccccc1S(=O)(=O)N1CCCc2ccc(NS(=O)(=O)c3ccc(OC)cc3)cc21` [实施例55, 2-((7-((4-甲氧基苯基)磺酰氨基)-3,4-二氢喹啉-1(2H)-基)磺酰基)苯甲酸甲酯]: 410 nM; for `COC(=O)c1ccc(S(=O)(=O)Nc2ccc3c(c2)N(S(=O)(=O)c2ccc(F)cc2)CCC3)cc1` [实施例19, 4-(N-(1-((4-氟苯基)磺酰基)-1,2,3,4-四氢喹啉-7-基)氨磺酰)苯甲酸甲酯]: 880 nM. `COC(=O)c1ccc(CS(=O)(=O)Nc2ccc3c(c2)N(S(=O)(=O)c2ccc(F)cc2)CCC3)cc1` [实施例23, 4-((N-(1-((4-氟苯基)磺酰基)-1,2,3,4-四氢喹啉-7-基)氨磺酰)甲基)苯甲酸甲酯]: the half-inhibitory concentration (IC50) turned out to be 940 nM.

In the case of `COC(=O)c1ccccc1S(=O)(=O)N1CCCc2ccc(NS(=O)(=O)c3ccc(F)cc3F)cc21` [实施例31, 2-((7-(2,4-二氟苯基磺酰氨基)-3,4-二氢喹啉-1(2H)-基)磺酰基)苯甲酸甲酯], the IC50 came out at 160 nM. Same read-out and setting: the same measure for `Cc1ccc(S(=O)(=O)Nc2ccc3c(c2)N(S(=O)(=O)c2ccc(F)cc2)CCC3)s1` [实施例5, N-(1-((4-氟苯基)磺酰基)-1,2,3,4-四氢-7-基)-5-甲基噻吩-2-磺酰胺]: 740 nM; for “N-(1-(噻吩-2-基磺酰基)-1,2,3,4-四氢喹啉-6-基)-2,3-二氢苯并[b][1,4]二氧杂环己烯 -6-磺酰胺 [实施例66]”: 900 nM; for `COC(=O)c1ccccc1S(=O)(=O)N1CCCc2ccc(NS(=O)(=O)c3cccc(Cl)c3F)cc21` [实施例53, 2-((7-(3-氯-2-氟苯基磺酰氨基)-3,4-二氢喹啉-1(2H)-基)磺酰基)苯甲酸甲酯]: 790 nM. Still for that read-out and setting: for `COC(=O)c1ccccc1S(=O)(=O)N1CCCc2ccc(NS(=O)(=O)c3c(Cl)cccc3Cl)cc21` [实施例54, 2-((7-(2,6-二氯苯基磺酰氨基)-3,4-二氢喹啉-1(2H)-基)磺酰基)苯甲酸甲酯] the value was 230 nM; for `COC(=O)c1ccccc1S(=O)(=O)N1CCCc2ccc(NS(=O)(=O)c3ccc4c(c3)OCCO4)cc21` [实施例52, 2-((7-(2,3-二氢苯并[b][1,4]二氧杂环己烯-6-磺酰基)-3,4-二氢喹啉-1(2H) -基)磺酰基)苯甲酸甲酯], 700 nM. Still for that read-out and setting: the same measure for `O=S(=O)(Nc1ccc2c(c1)N(S(=O)(=O)c1cccs1)CCC2)c1ccc2c(c1)OCCO2` [实施例48, N-(1-(噻吩-2-基磺酰基)-1,2,3,4-四氢喹啉-7-基)-2,3-二氢苯并[b][1,4]二氧杂环己烯-6-磺酰胺]: 580 nM; for `O=S(=O)(Nc1ccc2c(c1)N(S(=O)(=O)c1ccc(F)cc1)CCO2)c1ccc2c(c1)OCCO2` [实施例12, N-(4-((4-氟苯基)磺酰基)-3,4-二氢-2H-苯并[b][1,4]恶嗪-6-基)-2,3-二氢苯并[b] [1,4]二氧杂环己烯-6-磺酰胺]: 690 nM; for `O=S(=O)(Nc1ccc2c(c1)N(S(=O)(=O)Cc1ccc(F)cc1)CCC2)c1ccc(F)cc1F` [实施例28, 2,4-二氟-N-(1-((4-氟苄基)磺酰基)-1,2,3,4-四氢喹啉-7-基)苯磺酰胺]: 740 nM. On to `O=S(=O)(Nc1ccc2c(c1)N(S(=O)(=O)c1ccc(F)cc1)CCC2)c1ccc2c(c1)OCCO2` [实施例8, N-(1-((4-氟苯基)磺酰基)-1,2,3,4-四氢喹啉-7-基)-2,3-二氢苯并[b][1,4] 二氧杂环己烯-6-磺酰胺], for which the IC50 is 790 nM.

Staying with this data set, now noted: luciferase, RORγ cell level; reference drug T1317.
As for `COC(=O)c1ccccc1S(=O)(=O)N1CCCc2ccc(NS(=O)(=O)c3ccc(F)cc3F)cc21` [实施例31, 2-((7-(2,4-二氟苯基磺酰氨基)-3,4-二氢喹啉-1(2H)-基)磺酰基)苯甲酸甲酯], the “inhibitory activity compared with reference drug” value was “比对照药活性更好”.

With `CS(=O)(=O)c1cccc(S(=O)(=O)Nc2ccc3c(c2)N(S(=O)(=O)c2ccc(F)cc2)CCC3)c1` [实施例22, N-(1-((4-氟苯基)磺酰基)-1,2,3,4-四氢喹啉-7-基)-3-(甲基磺酰基)苯磺酰胺], the “inhibitory activity compared with reference drug” value is on record as “比对照药活性相当”. `COC(=O)c1cccc(CS(=O)(=O)Nc2ccc3c(c2)N(S(=O)(=O)c2ccc(F)cc2)CCC3)c1` [实施例24, 3-((N-(1-((4-氟苯基)磺酰基)-1,2,3,4-四氢喹啉-7-基)氨磺酰)甲基)苯甲酸甲酯]: the “inhibitory activity compared with reference drug” value is on record as “比对照药活性相当”.

System in the next data set: not given
Test: not given
As to conditions: literature, in words; cited from earlier work.
`C[C@H]1O[C@@H](O[C@H]2[C@@H](O)C[C@H](O[C@H]3[C@@H](O)C[C@H](O[C@H]4CC[C@@]5(C)[C@H](CC[C@@H]6[C@@H]5C[C@@H](O)[C@]5(C)[C@@H](C7=CC(=O)OC7)CC[C@]65O)C4)O[C@@H]3C)O[C@@H]2C)C[C@H](O)[C@@H]1O` [地高辛]: the side effects result is recorded as “有很强的副作用”.

In a further data set the test system is other nuclear receptors (LXRα/β, FXR, PXR) [其他核受体 (LXRα/β,FXR,PXR)].
Test: not given
Conditions: literature, in words; cited from earlier work.
With `O=S(=O)(c1ccccc1)N(CC(F)(F)F)c1ccc(C(O)(C(F)(F)F)C(F)(F)F)cc1` [T1317], the “action on other nuclear receptors” value is “还与至少四种其他核受体 (LXRα/β,FXR,PXR)有作用”.

The target in the next data set is T2, RORγ (Homo sapiens, UniProt P51449).
T2 sequence (P51449 1-518): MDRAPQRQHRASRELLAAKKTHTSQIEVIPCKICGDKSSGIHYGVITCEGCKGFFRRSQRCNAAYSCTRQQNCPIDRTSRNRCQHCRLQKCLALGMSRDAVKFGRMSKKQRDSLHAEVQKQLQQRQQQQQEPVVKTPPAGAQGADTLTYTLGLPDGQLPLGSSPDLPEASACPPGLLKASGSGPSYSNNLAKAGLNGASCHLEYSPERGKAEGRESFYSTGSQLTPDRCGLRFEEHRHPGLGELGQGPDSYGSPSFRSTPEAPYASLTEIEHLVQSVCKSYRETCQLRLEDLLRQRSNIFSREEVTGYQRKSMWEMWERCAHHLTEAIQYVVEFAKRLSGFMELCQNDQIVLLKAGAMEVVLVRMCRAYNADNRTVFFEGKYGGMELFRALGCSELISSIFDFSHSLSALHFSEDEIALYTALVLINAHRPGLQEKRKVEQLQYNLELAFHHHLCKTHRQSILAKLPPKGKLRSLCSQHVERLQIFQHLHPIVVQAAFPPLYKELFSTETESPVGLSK
Test: not given
As to conditions: literature, in words; cited from earlier work.
In the case of `C[C@H]1O[C@@H](O[C@H]2[C@@H](O)C[C@H](O[C@H]3[C@@H](O)C[C@H](O[C@H]4CC[C@@]5(C)[C@H](CC[C@@H]6[C@@H]5C[C@@H](O)[C@]5(C)[C@@H](C7=CC(=O)OC7)CC[C@]65O)C4)O[C@@H]3C)O[C@@H]2C)C[C@H](O)[C@@H]1O` [地高辛], the “action on RORγ” value is recorded as “可以作为RORγ的选择性调控物质”.

The next data set has as its target T3, RORα (Homo sapiens, UniProt P35398).
T3 sequence (P35398 1-523): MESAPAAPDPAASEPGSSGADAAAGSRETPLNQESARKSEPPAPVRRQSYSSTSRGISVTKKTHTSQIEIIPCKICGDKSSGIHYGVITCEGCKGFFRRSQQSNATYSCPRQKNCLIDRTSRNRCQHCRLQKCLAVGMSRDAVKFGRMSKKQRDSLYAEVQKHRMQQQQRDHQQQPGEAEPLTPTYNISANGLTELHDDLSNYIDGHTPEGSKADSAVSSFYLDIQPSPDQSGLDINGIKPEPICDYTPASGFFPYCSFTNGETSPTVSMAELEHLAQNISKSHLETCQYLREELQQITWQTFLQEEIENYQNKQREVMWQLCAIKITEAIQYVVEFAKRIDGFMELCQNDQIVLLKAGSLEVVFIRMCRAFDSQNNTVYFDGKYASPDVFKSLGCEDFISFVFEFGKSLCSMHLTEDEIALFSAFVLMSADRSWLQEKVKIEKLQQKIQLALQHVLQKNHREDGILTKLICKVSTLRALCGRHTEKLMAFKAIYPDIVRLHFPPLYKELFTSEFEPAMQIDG
Test: not given
As to conditions: literature, in words; cited from earlier work.
As to `O=S(=O)(Nc1ccc(C(O)(C(F)(F)F)C(F)(F)F)cc1)c1cccs1` [SR3335], the “action on RORα” value is given as “RORα的选择性反向激动剂”.

In the case of `CC(=O)Nc1nc(C)c(S(=O)(=O)Nc2ccc(C(O)(C(F)(F)F)C(F)(F)F)cc2)s1` [SR1001], the “action on RORα” value is “对RORγ和RORα有双重作用的反向激动剂”. As for `O=S(=O)(c1ccccc1)N(CC(F)(F)F)c1ccc(C(O)(C(F)(F)F)C(F)(F)F)cc1` [T1317], the “action on RORα” value was “可以与RORγ和RORα结合并调控它们的活性”.

A further data set addresses T4, glucocorticoid receptor [糖皮质激素受体] (Homo sapiens, UniProt P04150).
T4 sequence (P04150 1-777): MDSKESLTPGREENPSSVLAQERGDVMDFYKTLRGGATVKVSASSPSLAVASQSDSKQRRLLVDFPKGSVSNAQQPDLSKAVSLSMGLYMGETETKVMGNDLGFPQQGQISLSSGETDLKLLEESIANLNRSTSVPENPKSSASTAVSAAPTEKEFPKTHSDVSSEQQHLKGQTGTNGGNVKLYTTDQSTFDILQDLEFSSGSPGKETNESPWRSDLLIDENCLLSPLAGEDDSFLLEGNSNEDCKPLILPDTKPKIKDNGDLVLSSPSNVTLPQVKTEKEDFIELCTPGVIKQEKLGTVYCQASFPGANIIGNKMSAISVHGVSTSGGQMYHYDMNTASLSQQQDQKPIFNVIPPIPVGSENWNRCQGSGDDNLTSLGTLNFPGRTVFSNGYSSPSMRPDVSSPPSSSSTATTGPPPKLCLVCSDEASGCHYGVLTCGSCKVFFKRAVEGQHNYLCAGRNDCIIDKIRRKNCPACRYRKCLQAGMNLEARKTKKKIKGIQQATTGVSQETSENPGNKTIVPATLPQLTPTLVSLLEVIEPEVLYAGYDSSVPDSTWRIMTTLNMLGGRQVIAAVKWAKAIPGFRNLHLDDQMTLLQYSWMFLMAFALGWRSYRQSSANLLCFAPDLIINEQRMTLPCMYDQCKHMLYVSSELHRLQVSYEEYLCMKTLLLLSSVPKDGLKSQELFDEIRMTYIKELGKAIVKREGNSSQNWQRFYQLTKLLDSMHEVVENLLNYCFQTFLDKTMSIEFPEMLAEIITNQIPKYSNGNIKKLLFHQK
Test: not given
As to conditions: literature, in words; cited from earlier work.
Take `C[C@H]1[C@H](C)CC[C@]2(C(=O)O)CC[C@]3(C)C(=CC[C@@H]4[C@@]5(C)CC[C@H](O)C(C)(C)[C@@H]5CC[C@]43C)[C@H]12` [熊果酸]: the “action on glucocorticoid receptor” value was “对糖皮质激素受体也有作用”.
